{
  "source": "patent US11738062B2",
  "about": "“Herbal medicine extracts and uses and methods of preparation thereof” (ALPHA OASIS LLC, priority 2018, dated 2023)",
  "system": "collagen-induced arthritis DBA/1J mouse model",
  "assay": "murine model of collagen-induced arthritis, Arthritic Index (AI) scoring",
  "format": "in vivo",
  "conditions": "#4 and #10 100 μL topical patch, ENBREL 3 mg/kg subcutaneous",
  "data": [
    {"substance": "ENBREL®", "values": [
      {"measurement": "rate of disease progression (overall arthritis severity, FIG. 2)", "setting": "14 days of daily treatment", "result": "swiftly arrested"},
      {"measurement": "reduction in arthritis severity score (AI)", "setting": "after 14 days of daily treatment, compared to Group 2 (diseased, vegetable oil)", "result": 71, "unit": "%"}
    ]}
  ]
}
